“Also recorded” adds a separate entry of the source.
Key:
IL-6 = assay: Renal IR injury mouse model: IL-6 level in renal tissue; format: in vivo, C57BL/6 mouse; conditions: 24 hours after IR; 1000 nmol/kg 30 minutes before and 12 hours after IR; compared with PBS control group
Experimental: (§1) A renal JR injury mouse model was obtained by inducing IR by bilateral clamping renal pedicles for 30 minutes and restoring blood flow after 30 minutes by removing the clamps. Experimental groups were divided into three groups, which are an administered group (PEP 1), a control group (PBS: without PEP 1 administration), and a Sham group (no bilateral clamping). PEP 1 was subcutaneously injected at a concentration of 1000 nmol/kg 30 minutes before and 12 hours after the IR induction.
(§2) A C57BL/6 mouse (8-week-old; Charles River Laboratories, Wilmington, Mass.) was used to induce renal IR injury. The renal pedicles were clamped with vascular forceps to block blood flow, and ischemia was induced for […] in the renal IR injury model, followed by reperfusion.
(§3) The peptide PEP 1 was diluted with PBS to a concentration of 1000 nmol/kg, and then intraperitoneally injected twice, 30 minutes before and 12 hours after the IR.
(§4) Protein was extracted from renal tissue 24 hours after the IR, and IL-6, MCP-1 and TNF-α levels were measured by a cytometric bead array. Mouse IL-6, MCP-1, TNF-α, and an ELISA kit were purchased from R&D Systems, and the experiment was conducted according to the manufacturer's protocol.

[1] = system: renal IR injury mouse model; assay: Renal IR injury mouse model: blood urea nitrogen (BUN) and creatine; format: in vivo, C57BL/6 mouse; conditions: 24 hours after IR; 1000 nmol/kg 30 minutes before and 12 hours after IR; compared with PBS control group
Experimental: as §1, §2, §3
Blood was taken 24 hours after the JR and the levels of blood urea nitrogen (BUN) and creatine as renal toxicity markers were measured, renal tissue was taken and prepared into paraffin blocks for immunohistochemical and histological studies, and then proteins were extracted to measure cytokine levels. The creatine concentration and BUN were measured using an autoanalyzer (Technicon RA-1000; Bayer, Tarrytown, N.Y.).

transplanted lung [2] = assay: Rat lung transplantation: analysis of bronchoalveolar lavage fluid (BAL); format: in vivo, Sprague-Dawley rat; conditions: PERFADEX 50 mL + PEP1 5 mg
Experimental: (§5) The experiment was performed using two rats with the same gene, and lung transplantation was carried out by detaching the left lung from a donor rat and placing the donor's lung in the left thoracic cavity from which an original left lung was removed of the recipient rat. To basically prevent rejection, the rats had the same gene. Both the donor rat and recipient rat had weights of 300 to 350 g, and were the Sprague-Dawley species. Following the extraction of a lung from the donor rat, the lung was transplanted to the recipient rat through surgical procedures.
(§6) During perfusion, mechanical ventilation was continuously performed to allow uniform lung perfusion.
(§7) (4) Following the perfusion, trachea was ligated while the lung expanded under the endotracheal intubation, a heart-lung block was extracted, and then peripheral structures such as esophagus were removed on a cold petri-dish. The heart-lung block was weighed, and subjected to cold storage in a perfusion solution, which was the same as the lung perfusion solution. Ischemic duration was set three hours.
(§8) For the experiment, the lung transplant rats were divided into four groups. […]

abdominal skin flap = assay: Flap IR injury rat model: flap survivability; format: in vivo, Sprague-Dawley Rat; conditions: 7 days after IR induction; 10 mg/500 μl intramuscularly 30 minutes before and 1, 2, 3, 4, 5, and 7 days after IR; 7 hours ischemia
Experimental: Transplantation of a flap of the rectus abdominis was carried out as follows. An IR injury rat model was obtained by detaching a flap with a size of 5 cm×5 cm from abdominal skin of a white rat (Sprague-Dawley Rat, 180 to 230 g), adding PEP1 or saline to the rat, inducing ischemia through clamping, and restoring blood flow after 7 hours by removing the clamps (refer to FIG. 11).
Experimental groups were divided into three groups, which are an administered group (PEP 1), a control group (PBS without PEP 1), and a sham group (group in which no IR injury induced). PEP 1 (10 mg/500 μl) or saline (500 Id) was intramuscularly injected 30 minutes before and 1, 2, 3, 4, 5, and 7 days after the IR induction.
Flap survivability was measured 7 days after the IR induction. The flap survivability was measured through digital image analysis using imageJ program.

renal tissue = assay: Renal IR injury mouse model: TUNEL staining, renal apoptosis; format: in vivo, C57BL/6 mouse; conditions: 24 hours after IR; 1000 nmol/kg 30 minutes before and 12 hours after IR; compared with PBS control group
Experimental: (§9) A renal JR injury mouse model was obtained by inducing IR by bilateral clamping renal pedicles for 30 minutes and restoring blood flow after 30 minutes by removing the clamps. Experimental groups were divided into three groups, which are an administered group (PEP 1), a control group (PBS: without PEP 1 administration), and a Sham group (no bilateral clamping). PEP 1 was subcutaneously injected at a concentration of 1000 nmol/kg 30 minutes before and 12 hours after the IR induction. A C57BL/6 mouse (8-week-old; Charles River Laboratories, Wilmington, Mass.) was used to induce renal IR injury. The renal pedicles were clamped with vascular forceps to block blood flow, and ischemia was induced for […] in the renal IR injury model, followed by reperfusion. The peptide PEP 1 was diluted with PBS to a concentration of 1000 nmol/kg, and then intraperitoneally injected twice, 30 minutes before and 12 hours after the IR. […] Renal apoptosis was evaluated by staining renal tissue with TUNEL stain 24 hours after the IR. Renal paraffin sections were stained with TUNEL using a TUNEL staining kit (Roche Applied Science, Indianapolis, Ind., USA).

transplanted lung [3] = assay: Rat lung transplantation: H&E staining of alveolar tissue; format: in vivo, Sprague-Dawley rat
Experimental: as §5, §6, §7, §8

transplanted lung [4] = assay: Rat lung transplantation: wet/dry weight ratio (reperfusion edema); format: in vivo, Sprague-Dawley rat; conditions: PERFADEX 50 mL + PEP1 5 mg; lower lobe of transplanted lung
Experimental: as §5, §6, §7, §8

MCP-1 = assay: Renal IR injury mouse model: MCP-1 level in renal tissue; format: in vivo, C57BL/6 mouse; conditions: 24 hours after IR; 1000 nmol/kg 30 minutes before and 12 hours after IR; compared with PBS control group
Experimental: as §1, §2, §3, §4

[5] = system: macrophages and neutrophils in renal tissue; assay: Renal IR injury mouse model: innate immune cell infiltration by immunohistochemistry (F4/80, Gr-1); format: in vivo, C57BL/6 mouse; conditions: 24 hours after IR; 1000 nmol/kg 30 minutes before and 12 hours after IR; compared with PBS control group
Experimental: as §9, with “Infiltration of innate immune cells” for “Renal apoptosis”, “staining the” for “staining”, “a macrophage maker (F4/80) and a neutrophil maker (Gr-1) through immunohistochemistry” for “TUNEL stain”, “Specifically, infiltrated macrophages and neutrophils” for “Renal paraffin sections”, “with” for “with TUNEL using”, “macrophage-specific antibody (F4/80, abcam., Cambridge, Mass.) by an immunochemical method performed on paraffin-containing sections.” for “TUNEL staining kit (Roche Applied Science, Indianapolis, Ind., USA).”

TNF-α = assay: Renal IR injury mouse model: TNF-α level in renal tissue; format: in vivo, C57BL/6 mouse; conditions: 24 hours after IR; 1000 nmol/kg 30 minutes before and 12 hours after IR; compared with PBS control group
Experimental: as §1, §2, §3, §4

[6] = PERFADEX 50 mL + PEP1 5 mg as lung preservation solution

EARPALLTSRLRFIPK (listed as Homo sapiens) [PEP 1, 16 aa peptide derived from Homo sapiens telomerase, position [611-626]]
IL-6 level in renal tissue (IL-6): significantly decreased; also recorded: significantly inhibited | blood urea nitrogen (BUN) level [1]: significantly decreased | creatine level [1]: significantly decreased | expression of inflammatory cells in BAL among the four groups (transplanted lung [2]): lowest expression | flap survivability (abdominal skin flap): 58.88%±11.44% | TUNEL-positive cells (renal apoptosis) (renal tissue): remarkably decreased | preventing hemorrhage and maintaining the alveolar wall, 5 mg PEP1 rather than 50 mg PEP1 (transplanted lung [3]; PEP1 added to PERFADEX 50 mL, 5 mg compared with 50 mg): more effective | alveolar wall of transplanted lung (H&E) (transplanted lung [3]; [6]): did not get harder | hemorrhage in transplanted lung (H&E) (transplanted lung [3]; [6]): rarely occurred | reperfusion edema (wet/dry weight ratio) compared with normal saline administered group (transplanted lung [4]): significantly (p<0.05) decreased | reperfusion edema level among the four groups (transplanted lung [4]): lowest level | MCP-1 level in renal tissue (MCP-1): significantly decreased; also recorded: significantly inhibited | infiltration of macrophages into renal tissue (F4/80) [5]: remarkably decreased; also recorded: inhibited | infiltration of neutrophils into renal tissue (Gr-1) [5]: remarkably decreased; also recorded: inhibited | TNF-α level in renal tissue (TNF-α): no significant difference

— patent US10662223B2, “Composition for organ, tissue, or cell transplantation, kit, and transplantation method” (GemVax & KAEL Co., Ltd., priority 2014, dated 2020)
